The record followed here is ChEMBL document CHEMBL5046319, “Development of Low-Molecular-Weight Compounds Targeting the Cancer-Associated KLF5 Transcription Factor” (ACS Med Chem Lett, 2022).

As a reminder, the IC50 is the concentration needed to halve the response being measured.

Structures are written as SMILES. Calls of active or inactive are those of the source. The calls are words filed in the database; no cut-off is given here.

Data set [1] relates to SW480. The data set is described as follows: Antiproliferative activity against human SW480 cells assessed as inhibition of cell proliferation at 100 uM incubated for 72 hrs by CCK-8 assay. It counts as functional, cell-based. In general terms: Formazan colour is commonly taken as a measure of viable cells.
Data set [2] concerns CCD-841CoN. The data set is described as follows: Cytotoxicity against human CCD841 cells assessed as inhibition of cell proliferation at 100 uM incubated for 72 hrs by CCK-8 assay. The data set is classed as toxicity, cell-based.
Data set [3] has as its system HCT-116. Kind of data set: Antiproliferative activity against human HCT-116 cells assessed as inhibition of cell proliferation at 100 uM incubated for 72 hrs by CCK-8 assay. It counts as functional, cell-based.
The test system of data set [4] is SW480. Kind of data set: Inhibition of Wnt signalling in human SW480 cells assessed as reduction in phosphorylation of beta-catenin at ser552 residues at 10 uM measured after 24 hrs by western blot analysis. The data set is classed as cell-based.
Data set [5] concerns CCD-841CoN. The data set is described as follows: Inhibition of Wnt signalling in human CCD841 cells assessed as reduction in survivin expression at 10 uM measured after 24 hrs by western blot analysis. It counts as cell-based. (A western blot detects proteins with antibodies after separation by electrophoresis.)
Data set [6] concerns SW480. The data set is described as follows: Inhibition of Wnt signalling in human SW480 cells assessed as reduction in KLF5 expression at 10 uM measured after 24 hrs by western blot analysis. The data set is classed as cell-based.
The test system of data set [7] is CCD-841CoN. The data set is described as follows: Inhibition of Wnt signalling in human CCD841 cells assessed as reduction in KLF5 expression at 10 uM measured after 24 hrs by western blot analysis. It counts as cell-based.
Data set [8] concerns CCD-841CoN. The data set is described as follows: Cytotoxicity against human CCD-841 cells assessed as cell growth inhibition measured after 72 hrs by Cell Counting Kit-8 assay. The data set is classed as toxicity, cell-based.
The test system of data set [9] is HCT-116. Kind of data set: Antiproliferative activity against human HCT-116 cells assessed as cell growth inhibition measured after 72 hrs by Cell Counting Kit-8 assay. The data set is classed as functional, cell-based. The settings on record: HCT-116, 72 h.
In data set [10] the test system is SW480. The data set is described as follows: Inhibition of Wnt signalling in human SW480 cells assessed as reduction in survivin expression at 10 uM measured after 24 hrs by western blot analysis. The data set is classed as cell-based.
The test system of data set [11] is CCD-841CoN. Kind of data set: Inhibition of Wnt signalling in human CCD841 cells assessed as reduction in TCF4 expression at 10 uM measured after 24 hrs by western blot analysis. It counts as cell-based.
The subject of data set [12] is SW480. Kind of data set: Inhibition of Wnt signalling in human SW480 cells assessed as reduction in KLF5 mRNA expression at 10 uM measured after 24 hrs by RT-PCR analysis. It counts as cell-based.
The test system of data set [13] is SW480. Kind of data set: Antiproliferative activity against human SW480 cells assessed as cell growth inhibition measured after 72 hrs by Cell Counting Kit-8 assay. Particulars: SW480, 72 h. The data set is classed as functional, cell-based.
In data set [14] the test system is SW480. Kind of data set: Inhibition of Wnt signalling in human SW480 cells assessed as reduction in TCF4 expression at 10 uM measured after 24 hrs by western blot analysis. It counts as cell-based.
Data set [15] has as its system SW480. Kind of data set: Inhibition of Wnt signalling in human SW480 cells assessed as reduction in phosphorylation of beta-catenin at ser675 residue at 10 uM measured after 24 hrs by western blot analysis. It counts as cell-based.
Data set [16] has as its system CCD-841CoN. Kind of data set: Inhibition of Wnt signalling in human CCD841 cells assessed as reduction in phosphorylation of beta-catenin at ser675 residue at 10 uM measured after 24 hrs by western blot analysis. The data set is classed as cell-based.
In data set [17] the test system is SW480. Kind of data set: Inhibition of USP3-KLF5 protein complex formation in human SW480 cells assessed as reduction in beta-catenin expression at 10 uM measured after 24 hrs by western blot analysis. It counts as cell-based.
Data set [18] can be described thus: Toxicity in nude mouse transplanted subcutaneously with human HT-29 cells assessed as abnormality in villi formation at 2 mg, ip administered twice daily for 8 days by H and E staining based assay. The data set is classed as organism-based. Particulars: in vivo, 192 h, time 8 day.
Data set [19] in a line: Toxicity in nude mouse transplanted subcutaneously with human HT-29 cells assessed as abnormality in epithelial cell integrity at 2 mg, ip administered twice daily for 8 days by H and E staining based assay. It counts as organism-based. The settings on record: in vivo, 192 h, time 8 day.
Data set [20] relates to CCD-841CoN. The data set is described as follows: Inhibition of Wnt signalling in human CCD841 cells assessed as reduction in cyclin D1 expression at 10 uM measured after 24 hrs by western blot analysis. The data set is classed as cell-based.
Another data set deals with HT-29. The data set is described as follows: Antitumour activity against human HT-29 cells subcutaneously transplanted in nude mouse assessed as reduction in tumor volume at 2 mg, ip administered twice per day for 8 days. The settings on record: time 8.0 day. It counts as functional, organism-based.
In data set [21] the test system is SW480. The data set is described as follows: Inhibition of Wnt2 signalling in human SW480 cells assessed as reduction in cyclin D1 expression at 10 uM measured after 24 hrs by western blot analysis. It counts as cell-based.
The subject of another data set is HEK293T. The data set is described as follows: Inhibition of USP3-KLF5 protein complex formation in HEK293T cells overexpressing Myc tag-USP3 and FLAG/HA-KLF5 proteins assessed as reduction in KLF5 expression at 20 uM measured after 4 hrs by western blot analysis. The data set is classed as cell-based. The settings on record: Homo sapiens.

In the case of `CC(C)[C@H](O)C(=O)OCc1ccccc1`, the result with SW480 [1] and with HCT-116 [3] was Active. In addition, the Activity entry with CCD-841CoN [2] is reported as “Toxic”.

For the compound `O=Cc1ccccc1` [BENZALDEHYDE], the result with SW480 [1] and in the data set with HCT-116 [3] was Active. Moreover, the Activity entry in the data set with CCD-841CoN [2] is listed as “Toxic”.

As for `CC(C)COC(=O)N1O[C@H](C(C)C)C(=O)N2[C@@H](CC(C)C)CN(Cc3ccccc3)C[C@H]12`, the result in the data set with SW480 [4], in the data set on SW480 [6], with SW480 [10] and in the data set on SW480 [14] was Active. In addition, the result in the data set on CCD-841CoN [5], in the data set with CCD-841CoN [7], in the data set with CCD-841CoN [11] and in the data set with SW480 [12] was inactive. Moreover, in the data set with CCD-841CoN [8], the Activity entry is reported as “Non-Toxic”. Besides, the IC50 with HCT-116 [9] and in the data set on SW480 [13] was 5.1 µM each time.

For `O=C1c2ccccc2C(=O)N1O`, the result with SW480 [1] and with HCT-116 [3] was Active. Also, the Activity entry with CCD-841CoN [2] is “Toxic”.

`CCOC(CNCc1ccccc1)OCC`: the result in the data set on SW480 [1] and with HCT-116 [3] was Active. In addition, the Activity result in the data set on CCD-841CoN [2] was “Toxic”.

With `CCCC[C@H]1CN(Cc2ccccc2)C[C@@H]2N(C(=O)OCC(C)C)O[C@H](C(C)C)C(=O)N12`, the result in the data set with SW480 [4], in the data set on SW480 [6], with SW480 [10] and with SW480 [14] was Active. In addition, the outcome in the data set with CCD-841CoN [5], in the data set with CCD-841CoN [7], with CCD-841CoN [11] and with SW480 [12] was inactive. The Activity result with CCD-841CoN [8] was “Non-Toxic”. Besides, the concentration for half-maximal inhibition (IC50) with HCT-116 [9] and in the data set with SW480 [13] was 5.1 µM each time.

As to `CC[C@H](C)[C@H]1CN(Cc2ccccc2)C[C@@H]2N(C(=O)OCC(C)C)O[C@H](C(C)C)C(=O)N12`, the result in the data set on SW480 [15], with SW480 [4], with SW480 [6], in the data set with SW480 [17], with SW480 [10] and in the data set on HT-29 was Active. The result with SW480 [21], in the data set with SW480 [14] and with HEK293T was Active. Besides, the result in the data set on CCD-841CoN [16] and with CCD-841CoN [20] was inactive. The Activity result (with CCD-841CoN [8]; in data set [18]; in data set [19]) was “Non-Toxic” throughout. The IC50 with HCT-116 [9] and in the data set with SW480 [13] was 2.5 µM in each case.

Regarding `CC(C)[C@H](O)C(=O)O`, the outcome with SW480 [1] and in the data set on HCT-116 [3] was Active. Further, the Activity entry in the data set on CCD-841CoN [2] is recorded as “Toxic”.

On to `CCOC(CN(Cc1ccccc1)C(=O)[C@@H](NC(=O)OCC1c2ccccc2-c2ccccc21)[C@@H](C)CC)OCC`, for which the outcome with SW480 [1] and in the data set on HCT-116 [3] was Active. The Activity entry with CCD-841CoN [2] is on record as “Toxic”.

In the case of `CC(C)[C@@H](ON)C(=O)OCc1ccccc1`, the outcome in the data set on SW480 [1] and in the data set with HCT-116 [3] was Active. Moreover, the Activity result in the data set on CCD-841CoN [2] is reported as “Toxic”.

In the case of `CC(C)[C@@H](ON1C(=O)c2ccccc2C1=O)C(=O)OCc1ccccc1`, the outcome with SW480 [1] and in the data set on HCT-116 [3] was Active. Moreover, the Activity entry with CCD-841CoN [2] is on record as “Toxic”.

For the compound `CC[C@H](C)[C@H](NC(=O)OCC1c2ccccc2-c2ccccc21)C(=O)O`, the outcome with SW480 [1] and in the data set with HCT-116 [3] was Active. In the data set with CCD-841CoN [2], the Activity result is “Toxic”.

`O=C1[C@H](Cc2ccc(O)cc2)N2C(=O)CCN(C(=O)NCc3ccccc3)[C@H]2CN1Cc1cccc2ccccc12`: the result in the data set on SW480 [1] and in the data set on HCT-116 [3] was Active. Besides, the Activity entry in the data set with CCD-841CoN [2] was “Toxic”.

Regarding `CCOC(CN(Cc1ccccc1)C(=O)[C@@H](N)[C@@H](C)CC)OCC`, the result in the data set on SW480 [1] and in the data set with HCT-116 [3] was Active. Further, the Activity entry in the data set on CCD-841CoN [2] is reported as “Toxic”.

Consider `CCOC(CN)OCC`, for which the result with SW480 [1] and in the data set with HCT-116 [3] was Active. In addition, in the data set with CCD-841CoN [2], the Activity result is reported as “Toxic”.
